The values that follow come from patent publication US20240383852A1, “ANTI-VIRAL COMPOUNDS” (INFEX Therapeutics Limited, priority 2021, published 2024).

The target in one data set is T1, SARS-CoV-2 PLpro (Severe acute respiratory syndrome coronavirus 2, UniProt P0DTD1).
T1 construct: containing 60 nM papain-like protease
The data set can be described thus: biochemical.

Data set [1] has as its system human Hep G2 cells (ATCC HB-8065). The experiment in a line: Cytotoxicity in Hep G2 cells (CellTiter-Glo). The data set is classed as cell-based. For orientation: Cellular ATP, detected with luciferase, serves as a proxy for viable cell number.
The next data set deals with SARS-CoV-2. The data set can be described thus: Anti-viral potency in VERO E6 cells (cytopathic viral activity, crystal violet). The data set is classed as cell-based. The following applies: Severe acute respiratory syndrome coronavirus 2, Vero C1008, 48 h, read-out: SARS-COV-2 EC50 (μM). On the technique in general: Protection from cytopathic effect is a common read-out in antiviral testing.

Where [2] appears, read: 60 nM papain-like protease, 50 μM Z-RLRGG-AMC, pH 7.5, 37° C., read-out: SARS-CoV-2 PLpro IC50.
Setting [3] is: Hep G2 cells, 100 μM test article, 24-hour exposure.

Counter-ions that a name gives are not always drawn. Like-named read-outs stand apart in the source and are kept apart here.

One may read the IC50 as the concentration that gives 50% inhibition. What is called EC50 is the concentration that produces a half-maximal response. On to `COc1cc(-c2cnn(C)c2C)cc([C@@H](C)NC(=O)c2cc(N3CCN(C)CC3)ccc2C)c1` [Example 253, N-[(1R)-1-[3-(1,5-Dimethylpyrazol-4-yl)-5-methoxy-phenyl]ethyl]-2-methyl-5-(4-methylpiperazin-1-yl)benzamide hydrochloride salt], for which the concentration for half-maximal inhibition (IC50) at SARS-CoV-2 PLpro (setting [2]) was below 2 µM. For the same molecule, in data set [1] (setting [3]), the “% Cell Viability” value is 89.3%. Moreover, the EC50 in the data set with SARS-CoV-2 is below 5 µM.
Take `COc1ccc([C@@H](C)NC(=O)c2cc(N3CCN(C)CC3)ccc2C)cc1-c1cn(C)nc1C` [Example 212, N-[(1R)-1-[3-(1,3-Dimethylpyrazol-4-yl)-4-methoxy-phenyl]ethyl]-2-methyl-5-(4-methylpiperazin-1-yl)benzamide]: at SARS-CoV-2 PLpro (setting [2]), the IC50 is below 2 µM. Also, in data set [1] (setting [3]), the “% Cell Viability” value was found to be 96.8%. The 50% effective concentration (EC50) in the data set with SARS-CoV-2 was below 5 µM.
Consider `Cc1ccc(N2CCNCC2)cc1C(=O)N[C@H](C)c1cccc(-c2cnn(C)c2)c1` [Example 72, 2-Methyl-N-[(1R)-1-[3-(1-methylpyrazol-4-yl)phenyl]ethyl]-5-piperazin-1-yl-benzamide], for which, on SARS-CoV-2 PLpro (setting [2]), the 50% inhibitory concentration (IC50) was below 2 µM. Further, the “% Cell Viability” value in data set [1] (setting [3]) amounted to 79.0%. Moreover, the EC50 in the data set with SARS-CoV-2 was below 5 µM.
With `COc1cc(-c2cnn(C)c2)cc([C@@H](C)NC(=O)c2cc(N3C[C@H]4C[C@@H]3CN4C)ccc2C)c1` [Example 244, N-[(1R)-1-[3-Methoxy-5-(1-methylpyrazol-4-yl)phenyl]ethyl]-2-methyl-5-[(1R,4R)-5-methyl-2,5-diazabicyclo[2.2.1]heptan-2-yl]benzamide], the IC50 at SARS-CoV-2 PLpro (setting [2]) was below 2 µM. Besides, in data set [1] (setting [3]), the “% Cell Viability” value is on record as 67.1%. The 50% effective concentration (EC50) with SARS-CoV-2 was below 5 µM.
For `CCn1cc(-c2cc(OC)cc([C@@H](C)NC(=O)c3cc(N4CCN(C)CC4)ccc3C)c2)cn1` [Example 220, N-[(1R)-1-[3-(1-Ethylpyrazol-4-yl)-5-methoxy-phenyl]ethyl]-2-methyl-5-(4-methylpiperazin-1-yl)benzamide], in that order: below 2 µM, 80.7% and below 15 µM.
For `COc1ccc(-c2cnn(C)c2)cc1[C@@H](C)NC(=O)c1cc(N2CCN(C)CC2)ccc1C` [Example 239, N-[(1R)-1-[2-Methoxy-5-(1-methylpyrazol-4-yl)phenyl]ethyl]-2-methyl-5-(4-methylpiperazin-1-yl)benzamide], at SARS-CoV-2 PLpro (setting [2]), the IC50 is below 2 µM. Further, the “% Cell Viability” value in data set [1] (setting [3]) amounted to 101.6%. Also, the EC50 with SARS-CoV-2 was below 5 µM.
Consider `COc1ccc([C@@H](C)NC(=O)c2cc(N3CCNCC3)ccc2C)cc1-c1cnn(C)c1` [Example 260, N-[(1R)-1-[4-Methoxy-3-(1-methylpyrazol-4-yl)phenyl]ethyl]-2-methyl-5-piperazin-1-yl-benzamide], for which, on SARS-CoV-2 PLpro (setting [2]), the IC50 is below 2 µM. Besides, in data set [1] (setting [3]), the “% Cell Viability” value stood at 91.1%. For the same molecule, in the data set on SARS-CoV-2, the EC50 is below 15 µM.
Take `COc1cc(-c2cn(C)nc2C)cc([C@@H](C)NC(=O)c2cc(N3CCN(C)CC3)ccc2C)c1` [Example 233, N-[(1R)-1-[3-(1,3-Dimethylpyrazol-4-yl)-5-methoxy-phenyl]ethyl]-2-methyl-5-(4-methylpiperazin-1-yl)benzamide]: the 50% inhibitory concentration (IC50) at SARS-CoV-2 PLpro (setting [2]) is below 2 µM. For the same molecule, in data set [1] (setting [3]), the “% Cell Viability” value amounted to 88.9%. Moreover, the EC50 with SARS-CoV-2 is below 5 µM.
Turning to `Cc1ccc(N2CCN(C)CC2)cc1C(=O)N[C@H](C)c1ccc(F)c(-c2cnn(C)c2)c1` [Example 217, N-[(1R)-1-[4-Fluoro-3-(1-methylpyrazol-4-yl)phenyl]ethyl]-2-methyl-5-(4-methylpiperazin-1-yl)benzamide], the 50% inhibitory concentration (IC50) at SARS-CoV-2 PLpro (setting [2]) was below 2 µM. The “% Cell Viability” value in data set [1] (setting [3]) is reported as 61.7%. In addition, in the data set on SARS-CoV-2, the concentration giving a half-maximal response (EC50) is below 5 µM.
`COc1ccc([C@@H](C)NC(=O)c2cc(N3C[C@H]4CC[C@@H](C3)N4)ccc2C)cc1-c1cnn(C)c1` [Example 266, 5-[(1S,5R)-3,8-Diazabicyclo[3.2.1]octan-3-yl]-N-[(1R)-1-[4-methoxy-3-(1-methylpyrazol-4-yl)phenyl]ethyl]-2-methyl-benzamide hydrochloride salt] registered an IC50 against SARS-CoV-2 PLpro below 2 µM. Besides, the “% Cell Viability” value in data set [1] (human, 24 h, 100 μM) worked out at 61.1%. The 50% effective concentration (EC50) in the data set on SARS-CoV-2 is below 5 µM.
For the molecule `COc1cc(-c2cnn(C3CC3)c2)cc([C@@H](C)NC(=O)c2cc(N3CCN(C)CC3)ccc2C)c1` [Example 221, N-[(1R)-1-[3-(1-Cyclopropylpyrazol-4-yl)-5-methoxy-phenyl]ethyl]-2-methyl-5-(4-methylpiperazin-1-yl)benzamide], the IC50 at SARS-CoV-2 PLpro (setting [2]) was below 2 µM. Moreover, in data set [1] (setting [3]), the “% Cell Viability” value is 74.9%. Also, the EC50 in the data set with SARS-CoV-2 was below 5 µM.
For the molecule `COc1cc(-c2cnn(C)c2)cc([C@@H](C)NC(=O)c2cc(N3CCN(C)CC3)ccc2C)c1` [Example 219, N-[(1R)-1-[3-Methoxy-5-(1-methylpyrazol-4-yl)phenyl]ethyl]-2-methyl-5-(4-methylpiperazin-1-yl)benzamide], the IC50 on SARS-CoV-2 PLpro (setting [2]) was below 2 µM. For the same molecule, the EC50 in the data set with SARS-CoV-2 is below 5 µM.
As to `Cc1ccc(N2CCN(C)CC2)cc1C(=O)N[C@H](C)c1cccc(CCC(=O)NCCO)c1` [Example 96, N-[(1R)-1-[3-[3-(2-Hydroxyethylamino)-3-oxo-propyl]phenyl]ethyl]-2-methyl-5-(4-methylpiperazin-1-yl)benzamide], on SARS-CoV-2 PLpro (setting [2]), the IC50 is below 10 µM. The “% Cell Viability” value in data set [1] (setting [3]) was 97.3%.
For `Cc1ccc(N2CCN(C)CC2)cc1C(=O)N[C@H](C)c1cccc(-c2ccc(CO)s2)c1` [Example 79, N-[(1R)-1-[3-[5-(Hydroxymethyl)-2-thienyl]phenyl]ethyl]-2-methyl-5-(4-methylpiperazin-1-yl)benzamide], in that order: below 2 µM and 52.9%.
For `Cc1ccc(N2CCN(C)CC2)cc1C(=O)N[C@H](C)c1cc(-c2cnn(C)c2)cs1` [Example 232, 2-Methyl-5-(4-methylpiperazin-1-yl)-N-[(1R)-1-[4-(1-methylpyrazol-4-yl)-2-thienyl]ethyl]benzamide], the concentration for half-maximal inhibition (IC50) on SARS-CoV-2 PLpro (setting [2]) is below 5 µM. In addition, the “% Cell Viability” value in data set [1] (setting [3]) came out at 75.2%.
For the molecule `Cc1ccc(N2CC3(CN(CCO)C3)C2)cc1C(=O)N[C@H](C)c1cccc2ccccc12` [Example 20, 5-[6-(2-Hydroxyethyl)-2,6-diazaspiro[3.3]heptan-2-yl]-2-methyl-N-[(1R)-1-(1-naphthyl)ethyl]benzamide], the IC50 at SARS-CoV-2 PLpro (setting [2]) is below 5 µM. The “% Cell Viability” value in data set [1] (setting [3]) was determined as 94.3%.
For the molecule `Cc1ccc(N2CCN(C)CC2)cc1C(=O)N[C@H](C)c1cccc(-c2c(C)nn(C)c2C)c1` [Example 62, 2-Methyl-5-(4-methylpiperazin-1-yl)-N-[(1R)-1-[3-(1,3,5-trimethylpyrazol-4-yl)phenyl]ethyl]benzamide], at SARS-CoV-2 PLpro (setting [2]), the IC50 was below 2 µM. For the same molecule, the “% Cell Viability” value in data set [1] (setting [3]) is on record as 56.6%.
Take `Cc1ccc(N2CC3(CNC3)C2)cc1C(=O)N[C@H](C)c1cccc2ccccc12` [Example 17, 5-(2,6-Diazaspiro[3.3]heptan-2-yl)-2-methyl-N-[(1R)-1-(1-naphthyl)ethyl]benzamide]: at SARS-CoV-2 PLpro (setting [2]), the IC50 was below 5 µM. Also, in data set [1] (setting [3]), the “% Cell Viability” value is on record as 34.7%.
In the same order, the values of `C[C@@H](NC(=O)c1cccc(N2CCN(C)CC2)c1)c1cccc2ccccc12` [Example 2, 3-(4-Methylpiperazin-1-yl)-N-[(1R)-1-(1-naphthyl)ethyl]benzamide] are below 2 µM and 20.3%.
Consider `Cc1ccc(N2CCC(N)CC2)cc1C(=O)N[C@H](C)c1cccc2ccccc12` [Example 16, 5-(4-Amino-1-piperidyl)-2-methyl-N-[(1R)-1-(1-naphthyl)ethyl]benzamide], for which, at SARS-CoV-2 PLpro (setting [2]), the IC50 was below 5 µM. Besides, the “% Cell Viability” value in data set [1] (setting [3]) was determined as 1.1%.
As to `COc1ccc([C@@H](C)NC(=O)c2cc(N3CCN(C)CC3)ccc2C)cc1C1CCN(CCC(=O)O)CC1` [Example 238, 3-[4-[2-Methoxy-5-[(1R)-1-[[2-methyl-5-(4-methylpiperazin-1-yl)benzoyl]amino]ethyl]phenyl]-1-piperidyl]propanoic Acid], the concentration for half-maximal inhibition (IC50) at SARS-CoV-2 PLpro (setting [2]) was below 10 µM. Further, the “% Cell Viability” value in data set [1] (setting [3]) is 119.7%.
Turning to `C[C@@H](NC(=O)c1cccc(N2CCN(CCC(=O)O)CC2)c1)c1cccc2ccccc12` [Example 161, 3-[4-[3-[[(1R)-1-(1-Naphthyl)ethyl]carbamoyl]phenyl]piperazin-1-yl]propanoic Acid], the concentration for half-maximal inhibition (IC50) at SARS-CoV-2 PLpro (setting [2]) is below 20 µM. Also, in data set [1] (setting [3]), the “% Cell Viability” value is on record as 97.9%.
For the molecule `COc1ccc([C@@H](C)NC(=O)c2cc(N3C[C@@H]4C[C@H]3CN4)ccc2C)cc1OC` [Example 18, 5-[(1S,4S)-2,5-Diazabicyclo[2.2.1]heptan-2-yl]-N-[(1R)-1-(3,4-dimethoxyphenyl)ethyl]-2-methyl-benzamide], on SARS-CoV-2 PLpro (setting [2]), the IC50 is below 20 µM. For the same molecule, the “% Cell Viability” value in data set [1] (setting [3]) came to 119.3%.
For the molecule `Cc1ccc(N2CCN(C)CC2)cc1C(=O)N[C@H](C)c1cccc(-c2cccc(C(=O)N3CC[C@H](O)C3)c2)c1` [Example 95, N-[(1R)-1-[3-[3-[(3S)-3-Hydroxypyrrolidine-1-carbonyl]phenyl]phenyl]ethyl]-2-methyl-5-(4-methylpiperazin-1-yl)benzamide], at SARS-CoV-2 PLpro (setting [2]), the concentration for half-maximal inhibition (IC50) is below 2 µM. The “% Cell Viability” value in data set [1] (setting [3]) is 88.5%.
As for `Cc1ccc(N2CCN(C)CC2)cc1C(=O)N[C@H](C)c1cccc(C(=O)NC[C@H](O)CO)c1` [Example 309, N-[(1R)-1-[3-[[(2S)-2,3-Dihydroxypropyl]carbamoyl]phenyl]ethyl]-2-methyl-5-(4-methylpiperazin-1-yl)benzamide], the IC50 on SARS-CoV-2 PLpro (setting [2]) was below 5 µM. In data set [1] (setting [3]), the “% Cell Viability” value was found to be 118.2%.
`Cc1ccc(N2CCN(C)CC2)cc1C(=O)N[C@H](C)c1cccc(-c2cc[nH]n2)c1` [Example 49, 2-Methyl-5-(4-methylpiperazin-1-yl)-N-[(1R)-1-[3-(1H-pyrazol-3-yl)phenyl]ethyl]benzamide]: on SARS-CoV-2 PLpro (setting [2]), the IC50 is below 2 µM. In addition, the “% Cell Viability” value in data set [1] (setting [3]) was determined as 82.7%.
